Experiment [1] has as its system MDA-N. In words: In vitro cytotoxicity against human breast cancer MDA-N cell line. The experiment is classed as functional.
Experiment [2] has as its system HCC 2998. Kind of experiment: In vitro cytotoxicity against human colon cancer HCC 2998 cell line. Format: functional.
Experiment [3] concerns KM12. In words: In vitro cytotoxicity against human colon cancer KM 12 cell line. The experiment is classed as functional.
In experiment [4] the test system is COLO 205. In words: In vitro cytotoxicity against human colon cancer COLO 205 cell line. Format: functional.
For experiment [5], the system named is HCT-15. In words: In vitro cytotoxicity against human colon cancer HCT 15 cell line. Format: functional.
The subject of experiment [6] is HCT-116. Kind of experiment: In vitro cytotoxicity against human colon cancer HCT 116 cell line. Format: functional.
For experiment [7], the system named is SW-620. In words: In vitro cytotoxicity against human colon cancer SW 620 cell line. The experiment is classed as functional.
In experiment [8] the test system is MDA-MB-231. In words: In vitro cytotoxicity against human breast cancer MDA-MB 231 cell line. The experiment is classed as functional.
A short description of experiment [9]: In vitro cytotoxicity against human breast cancer MCF-7 ADR cell line. Format: functional. To be noted: MCF7.
In experiment [10] the test system is MCF7. Kind of experiment: In vitro cytotoxicity against human breast cancer MCF-7 cell line. Format: functional.
The subject of experiment [11] is BT-549. In words: In vitro cytotoxicity against human breast cancer BT-549 cell line. The experiment is classed as functional.
Experiment [12] has as its system Hs-578T. Kind of experiment: In vitro cytotoxicity against human breast cancer Hs 578.T cell line. Format: functional.
For experiment [13], the system named is MDA-MB-435. Kind of experiment: In vitro cytotoxicity against human breast cancer MDA-MB 435 cell line. The experiment is classed as functional.
Experiment [14] deals with HT-29. In words: In vitro cytotoxicity against human colon cancer HT 29 cell line. The experiment is classed as functional.
The test system of experiment [15] is NCI-H522. Kind of experiment: Compound was evaluated for in vitro cytotoxicity against H522 cancer cell line. To be noted: Homo sapiens.
Experiment [16] relates to SK-OV-3. In words: Compound was evaluated for in vitro cytotoxicity against SKOV3 cancer cell line. The experiment is classed as functional. To be noted: Homo sapiens.
Experiment [17] concerns MCF7. In words: Compound was evaluated for in vitro cytotoxicity against MCF-7 ADR cancer cell line. The experiment is classed as functional. The note with it: Homo sapiens.
The subject of experiment [18] is DU-145. In words: Compound was evaluated for in vitro cytotoxicity against DU-145 cancer cell line. To be noted: Homo sapiens. Format: functional.
For experiment [19], the system named is A498. In words: Compound was evaluated for in vitro cytotoxicity against A 498 cancer cell line. The experiment is classed as functional. To be noted: Homo sapiens.
The subject of experiment [20] is M14. Kind of experiment: Compound was evaluated for in vitro cytotoxicity against M-14 cancer cell line. To be noted: Homo sapiens. The experiment is classed as functional.
Experiment [21] has as its system MCF7. Kind of experiment: Compound was evaluated for in vitro cytotoxicity data against human breast cancer MCF-7 ADR cell line. The experiment is classed as functional.

With `CCCOC(=O)[C@@H]1[C@H](c2cc(OC)c(OC)c(OC)c2)c2cc3c(cc2[C@H](O)[C@H]1CO)OCO3`, the concentration for 50% growth inhibition (GI50) (as a rule, the concentration at which growth is held to half of that of the control) in [1] was 1450 nM; in experiment [2], 1700 nM; in experiment [3] it was 560 nM; in [4], 1200 nM; in experiment [5], 1400 nM; in [6], 420 nM. The GI50 was 700 nM in experiment [7]; more than 30000 nM in experiment [8]; 3200 nM in experiment [9]; 800 nM in experiment [10]; more than 30000 nM in experiment [11]; 2130 nM in experiment [12]. For the same compound, the values for the GI50 in experiment [13] and in experiment [14] were 400 nM and 890 nM, respectively.
For the compound `COC(=O)[C@@H]1[C@H](c2cc(OC)c(OC)c(OC)c2)c2cc3c(cc2C(=O)[C@H]1CO)OCO3`, the GI50 in experiment [1] stood at 2240 nM; in [2] it was 10800 nM; in [3] it was 3620 nM; in experiment [4], 7710 nM; in experiment [5], 5710 nM; in experiment [6], 6260 nM. Also, the GI50 was 3710 nM in experiment [7]; 16500 nM in experiment [8]; 17500 nM in experiment [9]; 4110 nM in experiment [10]; 29000 nM in [11]; 1890 nM in experiment [12]. Besides, the GI50 came to 1640 nM in experiment [13] and 3520 nM in [14].
As to `COc1cc([C@@H]2c3cc4c(cc3[C@H](O)[C@@H](CO)[C@@H]2C(=O)O)OCO4)cc(OC)c1OC`, the GI50 in experiment [2] was 55000 nM; in experiment [3], less than 10 nM; in experiment [4], less than 10 nM; in experiment [5] it was more than 100000 nM; in experiment [6] it was 40000 nM; in experiment [14], 50000 nM.
In the case of `CCCOC(=O)[C@@H]1C(c2cc(OC)c(OC)c(OC)c2)c2cc3c(cc2[C@@H]2OC(=O)OC[C@@H]12)OCO3` (stereo not given in full), the GI50 is 2000 nM in [2]; 2000 nM in experiment [3]; 900 nM in experiment [4]; 300 nM in experiment [5]; 500 nM in experiment [6]; more than 30000 nM in experiment [14].
Consider `COC(=O)[C@@H]1[C@H](c2cc(OC)c(OC)c(OC)c2)c2cc3c(cc2[C@H](O)[C@H]1CO)OCO3`, for which the GI50 amounted to 10 nM in experiment [15]; 30 nM in experiment [16]; 10 nM in [1]; 30 nM in experiment [2]; 20 nM in experiment [3]; 10 nM in experiment [4]. The GI50 in [5] amounted to 40 nM; in experiment [6], 40 nM; in experiment [7], 20 nM; in [8], 30 nM; in [9], 40 nM; in experiment [17] it was 40 nM. The GI50 in experiment [18] was determined as 40 nM; in experiment [10], 30 nM; in experiment [11] it was 60 nM; in experiment [19], 30 nM; in experiment [20] it was 40 nM; in experiment [12] it was 10 nM. In addition, the results for the GI50 in [13] and in [14] were 10 nM and 20 nM, respectively.
With `CCOC(=O)[C@@H]1[C@H](c2cc(OC)c(OC)c(OC)c2)c2cc3c(cc2C(=O)[C@H]1CO)OCO3`, the GI50 in experiment [1] came to 1700 nM; in experiment [2], 5630 nM; in experiment [3], 4210 nM; in [4], 2220 nM; in experiment [5], 3990 nM; in experiment [6], 4350 nM. The GI50 in experiment [7] turned out to be 2070 nM; in experiment [8], 5990 nM; in experiment [9] it was 5140 nM; in experiment [10] it was 3860 nM; in [11] it was 5450 nM; in [12], 1560 nM. Further, the concentration for 50% growth inhibition (GI50) in [13] is 1330 nM; in [14], 3360 nM.
Consider `COc1cc([C@@H]2c3cc4c(cc3[C@@H](O[C@@H]3O[C@@H]5CO[C@@H](C)O[C@H]5[C@H](O)[C@H]3O)[C@H]3COC(=O)[C@H]23)OCO4)cc(OC)c1O` [ETOPOSIDE], for which the GI50 in [1] was less than 10 nM; in [2] it was 3460 nM; in experiment [3], 5620 nM; in [4], 18100 nM; in [6] it was 6160 nM; in [8], 2000 nM. In addition, the GI50 worked out at 25000 nM in experiment [21], 8000 nM in experiment [12], 900 nM in experiment [13] and 15100 nM in [14].
Take `COc1cc([C@@H]2c3cc4c(cc3[C@H](O)[C@H]3COC(=O)[C@H]23)OCO4)cc(OC)c1OC` [PODOFILOX]: the GI50 in [1] is 70 nM; in experiment [2] it was 200 nM; in experiment [3] it was 10 nM; in experiment [5], 20 nM; in experiment [6], 10 nM; in [8], 40 nM. The GI50 worked out at 600 nM in experiment [9]; 900 nM in experiment [10]; 80 nM in experiment [12]; 700 nM in experiment [13]; 10 nM in [14].
